Assay results: patent EP0098615A1, “1-Oxadethiacephalosporin compound and antibacterial agent containing the same” (MEIJI SEIKA KAISHA LTD., priority 1982, dated 1984)
≈ marks a conversion by molar mass, not a printed value. Where two headings read alike, the source gives them in different places.

Experiments:
[1] = test system: Proteus vulgaris GN 76; experiment: MIC by serial dilution method on agar plates; type: cell-based
[2] = test system: Salmonella typhimurium LT-2; experiment: MIC by serial dilution method on agar plates; type: cell-based; conditions: Salmonella enterica, read-out: Minimum inhibitory concentrations (MIC.)
[3] = test system: Escherichia coli No. 29; experiment: Curative effect of oral administration in infected mice (survival); type: in vivo; conditions: three mice in each group, i.p. inoculum 3.25 x 10^5 CFU/mouse, 7 days observation
Source text: Thus, some tests were made to evaluate the curative effects of the new compound of this invention in therapeutic treatment of bacterial infections when the new compound was orally given to mice (average body weight 20 g) which had been infected with Escherichia coli No. 29. In these tests for therapeutic treatment of the bacterial infection, mice (three mice in each group) were inoculated intraperitoneally with Escherichia coli No. 29 at an inoculum dose of 3.25 x 10^5 CFU/mouse and then immediately treated by oral administration of the test compound. For the subsequent 7 days, the mice were kept under observation and the number of surviving mice was counted.

[4] = test system: Staphylococcus aureus Smith; experiment: MIC by serial dilution method on agar plates; type: cell-based; conditions: read-out: Minimum inhibitory concentrations (MIC.)
[5] = test system: Proteus mirabilis GN 79; experiment: MIC by serial dilution method on agar plates; type: cell-based
[6] = test system: Serratia marcescens No. 2; experiment: MIC by serial dilution method on agar plates; type: cell-based
[7] = test system: Klebsiella pneumoniae PCI 602; experiment: MIC by serial dilution method on agar plates; type: cell-based
[8] = test system: Escherichia coli NIHJ JC-2; experiment: MIC by serial dilution method on agar plates; type: cell-based
[9] = test system: Staphylococcus aureus 209P JC-1; experiment: MIC by serial dilution method on agar plates; type: cell-based; conditions: read-out: Minimum inhibitory concentrations (MIC.)
[10] = test system: Protues rettgeri GN 624; experiment: MIC by serial dilution method on agar plates; type: cell-based; conditions: read-out: Minimum inhibitory concentrations (MIC.)
[11] = GN76, Proteus vulgaris GN 76, serial dilution on agar plates, read-out: Minimum inhibitory concentrations (MIC.)
[12] = Salmonella typhimurium LT-2, serial dilution on agar plates
[13] = Staphylococcus aureus Smith, serial dilution on agar plates
[14] = GN79, Proteus mirabilis GN 79, serial dilution on agar plates, read-out: Minimum inhibitory concentrations (MIC.)
[15] = Serratia marcescens No. 2, serial dilution on agar plates, read-out: Minimum inhibitory concentrations (MIC.)
[16] = PCI602, Klebsiella pneumoniae PCI 602, serial dilution on agar plates, read-out: Minimum inhibitory concentrations (MIC.)
[17] = NIHJJC2, Escherichia coli NIHJ JC-2, serial dilution on agar plates, read-out: Minimum inhibitory concentrations (MIC.)
[18] = Staphylococcus aureus 209P JC-1, serial dilution on agar plates
[19] = Protues rettgeri GN 624, serial dilution on agar plates

Row | Compound | MIC [1, 11] [µg/mL] | MIC [2, 12] [µg/mL] | MIC [4, 13] [µg/mL] | MIC [5, 14] [µg/mL] | MIC [6, 15] [µg/mL] | MIC [7, 16] [µg/mL] | MIC [8, 17] [µg/mL] | MIC [9, 18] [µg/mL] | MIC [10, 19] [µg/mL] | number of surviving mice ([3]; 0.1 mg/mouse oral) | number of surviving mice ([3]; 1 mg/mouse oral) | number of surviving mice ([3]; 5 mg/mouse oral) | number of surviving mice ([3]; 10 mg/mouse oral) | other results
1 | CO/N=C(\C(=O)NC1C(=O)N2C(C(=O)O)=C(SC)COC12)c1csc(N)n1 (centres unmarked) [Example 6(b), 7-[2-(2-amino-4-thiazolyl)-2-methoxy-iminoacetamido]-1-oxa-1-dethia-3-methyl-thio-3-cephem-4-carboxylic acid tri-fluoroacetate] | – | – | – | – | – | – | – | – | – | 1 | 3 | 3 | 3 | MIC ([1]; Proteus vulgaris, GN76, read-out: Minimum inhibitory concentrations (MIC.)): > 100 µg/mL; MIC ([2]; TYPHIMURIUM): 0.05 µg/mL (≈ 0.121 µM); MIC ([4]; Staphylococcus aureus): 3.13 µg/mL (≈ 7.57 µM); MIC ([5]; Proteus mirabilis, GN79, read-out: Minimum inhibitory concentrations (MIC.)): 0.39 µg/mL (≈ 0.943 µM); MIC ([6]; Serratia marcescens, NO.2, read-out: Minimum inhibitory concentrations (MIC.)): 0.78 µg/mL (≈ 1.89 µM); MIC ([7]; Klebsiella pneumoniae, PCI602, read-out: Minimum inhibitory concentrations (MIC.)): 0.1 µg/mL (≈ 0.242 µM); MIC ([8]; Escherichia coli, NIHJJC2, read-out: Minimum inhibitory concentrations (MIC.)): 0.78 µg/mL (≈ 1.89 µM); MIC ([9]; Staphylococcus aureus, 209P): 1.56 µg/mL (≈ 3.77 µM); MIC [10]: 3.13 µg/mL (≈ 7.57 µM)
2 | COC1=C(C(=O)O)N2C(=O)[C@@H](NC(=O)[C@H](N)C3=CCC=CC3)[C@H]2SC1 [Cefroxadine, reference compound] | > 100 | 6.25 (≈ 17.1 µM) | 1.56 (≈ 4.27 µM) | 50 (≈ 137 µM) | 100 (≈ 274 µM) | 3.13 (≈ 8.57 µM) | 3.13 (≈ 8.57 µM) | 1.56 (≈ 4.27 µM) | > 100 | 0 | 0 | 3 | 3 | –
3 | CSC1=C(C(=O)O)N2C(=O)C(NC(=O)C(C(=O)O)c3cccs3)C2OC1 (centres unmarked) [Example 3(b), 7-[2-(2-thienyl)-2-carboxyacetamide]-1-oxa-1-dethia-3-methylthio-3-cephem-4-carboxylic acid] | 50 (≈ 125 µM) | 0.78 (≈ 1.96 µM) | 0.39 (≈ 0.979 µM) | 6.25 (≈ 15.7 µM) | 3.13 (≈ 7.86 µM) | 0.78 (≈ 1.96 µM) | 0.78 (≈ 1.96 µM) | 0.2 (≈ 0.502 µM) | 3.13 (≈ 7.86 µM) | – | – | – | – | –

Now from value to compound, other results behind:

Row | MIC [1, 11] [µg/mL] | MIC [2, 12] [µg/mL] | MIC [4, 13] [µg/mL] | MIC [5, 14] [µg/mL] | MIC [6, 15] [µg/mL] | MIC [7, 16] [µg/mL] | MIC [8, 17] [µg/mL] | MIC [9, 18] [µg/mL] | MIC [10, 19] [µg/mL] | Compound | number of surviving mice ([3]; 0.1 mg/mouse oral) | number of surviving mice ([3]; 1 mg/mouse oral) | number of surviving mice ([3]; 5 mg/mouse oral) | number of surviving mice ([3]; 10 mg/mouse oral) | other results
4 | 50 (≈ 125 µM) | 0.2 (≈ 0.502 µM) | 3.13 (≈ 7.86 µM) | 1.56 (≈ 3.92 µM) | 0.39 (≈ 0.979 µM) | 0.39 (≈ 0.979 µM) | 0.78 (≈ 1.96 µM) | 1.56 (≈ 3.92 µM) | 1.56 (≈ 3.92 µM) | CSC1=C(C(=O)O)N2C(=O)C(NC(=O)C(C(=O)O)c3ccsc3)C2OC1 (centres unmarked) [Example 4(b), 7-[2-(3-thienyl)-2-carboxyacetamido]-1-oxa-1-dethia-3-methylthio-3-cephem-4-carboxylic acid] | – | – | – | – | –
5 | > 100 | 1.56 (≈ 4.4 µM) | 0.1 (≈ 0.282 µM) | 25 (≈ 70.5 µM) | > 100 | 1.56 (≈ 4.4 µM) | 6.25 (≈ 17.6 µM) | 0.05 (≈ 0.141 µM) | > 100 | CSC1=C(C(=O)O)N2C(=O)C(NC(=O)Cc3ccsc3)C2OC1 (centres unmarked) [Example 2(b), 7-(3-thienylacetamido)-1-oxa-1-dethia-3-methylthio-3-cephem-4-carboxylic acid] | – | – | – | – | –
6 | > 100 | 1.56 (≈ 4.4 µM) | 0.2 (≈ 0.564 µM) | 25 (≈ 70.5 µM) | > 100 | 1.56 (≈ 4.4 µM) | 6.25 (≈ 17.6 µM) | 0.2 (≈ 0.564 µM) | > 100 | CSC1=C(C(=O)O)N2C(=O)C(NC(=O)Cc3cccs3)C2OC1 (centres unmarked) [Example 1(b), 7-(2-thienylacetamido)-1-oxa-1-dethia-3-methylthio-3-cephem-4-carboxylic acid] | – | – | – | – | –
